Assay results published in PMC9502896 (Nutrients, 2022).
Where “and” joins values, the source holds several entries; their conditions need not be identical. Equal values may be shown once. Read-outs that look alike come from different tables or passages of the source. One block for each compound: values may come before it.

Tests used:
[1] = molecular target: T1, hMAO-B (Homo sapiens, UniProt P27338); assay: In vitro hMAO inhibitory assay (luminometric), MAO-B; assay type: biochemical; details: 16 µM substrate, 0.5 µg enzyme, 25 °C, 1 h; read-out: hMAO-B IC50 (Mean ± SD)
T1 construct: purchased Sigma-Aldrich
T1 sequence (P27338 1-520): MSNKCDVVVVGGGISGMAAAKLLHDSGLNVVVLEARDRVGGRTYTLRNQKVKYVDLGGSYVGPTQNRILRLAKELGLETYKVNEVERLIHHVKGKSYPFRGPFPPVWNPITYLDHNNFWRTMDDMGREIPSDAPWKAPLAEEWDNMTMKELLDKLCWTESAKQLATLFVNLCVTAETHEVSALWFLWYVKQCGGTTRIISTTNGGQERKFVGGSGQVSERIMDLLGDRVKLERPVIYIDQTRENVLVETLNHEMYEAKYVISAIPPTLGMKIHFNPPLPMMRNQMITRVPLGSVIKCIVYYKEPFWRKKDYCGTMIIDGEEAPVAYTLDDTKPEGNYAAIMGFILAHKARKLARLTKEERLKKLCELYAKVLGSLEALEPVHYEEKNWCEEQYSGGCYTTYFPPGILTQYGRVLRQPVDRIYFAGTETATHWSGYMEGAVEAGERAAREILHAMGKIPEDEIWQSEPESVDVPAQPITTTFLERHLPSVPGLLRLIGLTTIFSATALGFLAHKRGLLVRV
Description: (§1) The inhibitory potential of the P. lobata-derived phytochemicals against MAO was evaluated through the luminometric method. Various doses of phytoestrogens in 0.1 M HEPES buffer (pH 7.5) with 5% 1,2,3-propanetriol for MAO-A and 5% 1,2,3-propanetriol and 10% dimethyl sulfoxide for MAO-B were mixed with the substrate (160 µM for MAO-A and 16 µM for MAO-B) and 0.5 µg of the enzyme and incubated at 25 °C. After 1 h incubation, reconstituted luciferin-detection reagent was added to the reaction mixture and incubated at 25 °C for 20 min. After that, luminescent signals were monitored using a microplate reader (Biotek, Winooski, VT, USA).
(§2) In addition, since factors such as organic solvents, metal ions (such as Cu^2+, Cd^2+, and Al^3+), pH, and temperature affect MAO activity, the assay was conducted in a well-controlled laboratory environment. The optimal conditions for the enzymatic reaction, including reaction time, temperature, pH, and the concentrations of the enzyme and substrate, were established based on the previous study. All the test samples were diluted in a reaction buffer containing 10% or less DMSO, and the solvent-control group was tested together for each assay to minimize false-positive/false-negative effects.

[2] = molecular target: T2, hMAO-A (Homo sapiens, UniProt P21397); assay: In vitro hMAO inhibitory assay (luminometric), MAO-A; assay type: biochemical
T2 construct: purchased Sigma-Aldrich
T2 sequence (P21397 1-527): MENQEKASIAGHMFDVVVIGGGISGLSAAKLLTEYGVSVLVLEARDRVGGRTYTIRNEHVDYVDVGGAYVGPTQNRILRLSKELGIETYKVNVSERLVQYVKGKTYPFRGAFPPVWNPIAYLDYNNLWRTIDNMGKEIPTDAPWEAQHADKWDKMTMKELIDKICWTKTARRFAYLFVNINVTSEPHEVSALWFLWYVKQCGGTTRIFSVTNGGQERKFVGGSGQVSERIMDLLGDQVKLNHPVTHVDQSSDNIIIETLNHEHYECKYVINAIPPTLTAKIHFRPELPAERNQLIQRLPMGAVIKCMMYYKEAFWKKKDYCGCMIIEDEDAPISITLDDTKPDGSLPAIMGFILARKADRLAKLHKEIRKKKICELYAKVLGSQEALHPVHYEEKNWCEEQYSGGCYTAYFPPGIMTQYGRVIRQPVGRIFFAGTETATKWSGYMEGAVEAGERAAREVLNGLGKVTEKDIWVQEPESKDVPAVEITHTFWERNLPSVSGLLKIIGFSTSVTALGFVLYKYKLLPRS
Description: as §1, §2

[3] = molecular target: T3, Aβ25–35 (Homo sapiens, UniProt P05067); assay: Self Aβ25–35 aggregation assay (thioflavin-T fluorescence); assay type: biochemical; details: for decrease of Aβ25–35 self-aggregation compared to control: 100 μM compound, 24 h of incubation
T3 construct: amyloid β peptide 25–35 (Aβ25–35); purchased Sigma-Aldrich
Description: The Aβ25–35 self-aggregation assay was performed following the method described by Naldi et al.. First, peptide was pretreated with HFIP for 1 day at 22 °C to obtain non-amyloidogenic conformation. […] After incubation, the reaction mixture was supplemented with 0.025 mM thioflavin-T in 50 mM glycine–NaOH buffer (pH 8.5). The fluorescence emission was monitored at 490 nm with excitation at 446 nm using the Gemini XPS (Molecular Devices, Sunnyvale, CA, USA).

[4] = molecular target: T2, hMAO-A; assay: Kinetic assay for hMAO-A (Lineweaver-Burk and secondary plots); assay type: biochemical
Description: The experimental method was the same as that used for the hMAO inhibitory assay; 0.5 µg of enzyme, 40–160 µM substrate and 0, 2.5, 10, and 20 µM coumestrol were used. A Lineweaver–Burk plot (LB plot) was generated using SigmaPlot 12.0 based on the results of the kinetic assay and secondary plots of the LB plot (LB-2nd plot) were generated using the exploratory EK macro module (Table S1).
The equation for the LB plot is as follows:(1) […]

[5] = test system: mouse astrocytes; set-up: method as in PMID 21708076; details: nanomolar concentration; Aβ-induced cytotoxicity and inflammatory cytokine levels; cited from earlier work
[6] = test system: β-secretase; set-up: method as in PMID 29597336; details: cited from earlier work
[7] = test system: MAO-A; details: cited from earlier work
[8] = test system: MAO-B; details: cited from earlier work
[9] = 160 µM substrate, 0.5 µg enzyme, 25 °C, 1 h, read-out: hMAO-A IC50 (Mean ± SD)
[10] = Screening active compound, 100 μM
[11] = substrate 40 μM, coumestrol 2.5 μM
[12] = substrate 40 μM, coumestrol 10 μM
[13] = substrate 40 μM, coumestrol 20 μM
[14] = substrate 80 μM, coumestrol 2.5 μM
[15] = substrate 80 μM, coumestrol 10 μM
[16] = substrate 80 μM, coumestrol 20 μM
[17] = substrate 160 μM, coumestrol 2.5 μM
[18] = substrate 160 μM, coumestrol 10 μM
[19] = substrate 160 μM, coumestrol 20 μM

IC50 [1]: > 400 µM
IC50 [2, 9]: > 400 µM
Compound: CC1OC(OCC2OC(Oc3c(-c4ccc(O)cc4)oc4cc(OC5OC(C)C(O)C(O)C5O)cc(O)c4c3=O)C(O)C(O)C2O)C(O)C(O)C1O (centres unmarked) [Robinin, kaempferol 3-O-robinoside-7-O-rhamnoside]

IC50 [1]: 77.8 ± 2.1 µM
decrease of Aβ25–35 self-aggregation compared to control [3]: 76.14%
Fluorescence (Emission = 490 nm / Excitation = 446 nm), replicates 1-3 ([3]; Dose-dependent curves, 5 μM): 874.9012 and 872.4322 and 899.9266
Fluorescence (Emission = 490 nm / Excitation = 446 nm), replicates 1-3 ([3]; Dose-dependent curves, 10 μM): 820.955 and 835.446 and 846.767
Fluorescence (Emission = 490 nm / Excitation = 446 nm), replicates 1-3 ([3]; Dose-dependent curves, 20 μM): 725.8814 and 709.3678 and 704.8239
Fluorescence (Emission = 490 nm / Excitation = 446 nm), replicates 1-3 ([3]; Dose-dependent curves, 50 μM): 578.864 and 549.001 and 576.214
Fluorescence (Emission = 490 nm / Excitation = 446 nm), replicates 1-3 ([3]; Dose-dependent curves, 100 μM): 484.285 and 460.697 and 486.519
Fluorescence (Emission = 490 nm / Excitation = 446 nm), replicates 1-3 [3, 10]: 420.995 and 408.908 and 418.89
IC50 ([3]; thioflavin-T assay, read-out: IC50 for inhibition of Aβ25–35 self-aggregation): 37.4 ± 1.7 µM
Inhibition Mode ([4]; 0.5 µg MAO-A, 40–160 µM substrate, 25 °C): Competitive
Inhibition Mode ([4]; 0.5 µg MAO-A, 40–160 µM substrate, 25 °C, listed as coumestrol): competitive inhibitor
Ki ([4]; 0.5 µg MAO-A, 40–160 µM substrate, 25 °C, secondary plots, read-out: Inhibition Constant (Ki)): 1.32 µM
1/V Mean [4, 11]: 0.000734 1/(RLU/60min)
RLU Mean [4, 11]: 81783.67 RLU
1/V Mean [4, 12]: 0.001642 1/(RLU/60min)
RLU Mean [4, 12]: 36716 RLU
1/V Mean [4, 13]: 0.002945 1/(RLU/60min)
RLU Mean [4, 13]: 20374 RLU
1/V Mean [4, 14]: 0.000475 1/(RLU/60min)
RLU Mean [4, 14]: 126374 RLU
1/V Mean [4, 15]: 0.000938 1/(RLU/60min)
RLU Mean [4, 15]: 64010.67 RLU
1/V Mean [4, 16]: 0.001597 1/(RLU/60min)
RLU Mean [4, 16]: 37649 RLU
1/V Mean [4, 17]: 0.000261 1/(RLU/60min)
RLU Mean [4, 17]: 229959.3 RLU
1/V Mean [4, 18]: 0.000495 1/(RLU/60min)
RLU Mean [4, 18]: 121308.7 RLU
1/V Mean [4, 19]: 0.000797 1/(RLU/60min)
RLU Mean [4, 19]: 75572 RLU
IC50 [2, 9]: 1.99 ± 0.68 µM
Compound: O=c1oc2cc(O)ccc2c2oc3cc(O)ccc3c12 [Coumestrol]
neuroprotective effects in mouse astrocytes [5]: neuroprotective effects
in vitro inhibitory effect against β-secretase [6]: in vitro inhibitory effect

Fluorescence (Emission = 490 nm / Excitation = 446 nm), replicates 1-3 ([3]; Dose-dependent curves, 5 μM): 714.733 and 699.957 and 732.987
Fluorescence (Emission = 490 nm / Excitation = 446 nm), replicates 1-3 ([3]; Dose-dependent curves, 10 μM): 659.3354 and 647.8281 and 645.7345
Fluorescence (Emission = 490 nm / Excitation = 446 nm), replicates 1-3 ([3]; Dose-dependent curves, 20 μM): 508.323 and 494.704 and 529.05
Fluorescence (Emission = 490 nm / Excitation = 446 nm), replicates 1-3 ([3]; Screening active compound, 20 μM): 446.557 and 456.907 and 436.435
Compound: COc1cc(/C=C/C(=O)CC(=O)/C=C/c2ccc(O)c(OC)c2)ccc1O [Curcumin, curcumin, reference compound]

decrease of Aβ25–35 self-aggregation compared to control [3]: 35.54%
Fluorescence (Emission = 490 nm / Excitation = 446 nm), replicates 1-3 [3, 10]: 752.714 and 744.841 and 739.542
Compound: O=c1c(-c2ccc(O)cc2)coc2cc(O)ccc12 [Daidzein]

IC50 [1]: > 400 µM
IC50 [2, 9]: > 400 µM
Compound: CC1OC(OCC2OC(Oc3c(-c4ccc(O)cc4)oc4cc(O)cc(O)c4c3=O)C(O)C(O)C2O)C(O)C(O)C1O (centres unmarked) [Kaempferol-3-O-robinobioside]

decrease of Aβ25–35 self-aggregation compared to control [3]: 34.90%
Fluorescence (Emission = 490 nm / Excitation = 446 nm), replicates 1-3 [3, 10]: 656.961 and 678.75 and 636.556
Compound: O=c1c(-c2ccc(O)cc2)coc2cc(O)cc(O)c12 [Genistein]

IC50 [1]: > 400 µM
IC50 [2, 9]: > 400 µM
Compound: CC1OC(OCC2OC(Oc3c(-c4ccc(O)cc4)oc4cc(O)cc(O)c4c3=O)C(O)C(O)C2O)C(O)C(O)C1O (centres unmarked) [Nicotiflorine]

IC50 [1]: > 400 µM
IC50 [2, 9]: > 400 µM
Compound: O=c1c(-c2ccc(O)cc2)coc2cc(O[C@@H]3O[C@H](CO)[C@@H](O)[C@H](O)[C@H]3O)cc(O)c12 [Genistin]

The next lines start with the compound.

Compound: C[C@@H]1O[C@@H](OC[C@H]2O[C@@H](Oc3c(-c4ccc(O)c(O)c4)oc4cc(O)cc(O)c4c3=O)[C@H](O)[C@@H](O)[C@@H]2O)[C@H](O)[C@H](O)[C@H]1O [Rutin]
IC50 [1]: > 400 µM
decrease of Aβ25–35 self-aggregation compared to control [3]: 49.31%
Fluorescence (Emission = 490 nm / Excitation = 446 nm), replicates 1-3 [3, 10]: 556.703 and 574.097 and 523.388
IC50 [2]: 387 ± 4.63 µM
inhibitory activity against MAO-A [2]: weak MAO-A inhibitory activity

Compound: CC1OC(OCC2OC(Oc3c(-c4ccc(O)c(O)c4)oc4cc(O)cc(O)c4c3=O)C(O)C(O)C2O)C(O)C(O)C1O (centres unmarked) [Quercetin-3-O-robinobioside]
IC50 [1]: > 400 µM
IC50 [2]: > 400 µM

Compound: CC(C)=CCc1cc2c(cc1O)oc(=O)c1c3ccc(O)cc3oc21 [psoralidin]
inhibitory effect against MAO-A [7]: did not show a significant inhibitory effect
inhibitory effect against MAO-B [8]: did not show a significant inhibitory effect

Compound: COc1c(CC=C(C)C)c(O)cc2oc(=O)c3c4ccc(O)cc4oc3c12 [glycyrol]
IC50 ([7]; read-out: activity against MAO-A (no activity below)): > 40 µM
IC50 ([8]; read-out: IC50 against MAO-B): 29.5 µM

Compound: O=c1c(-c2ccc(O)cc2)coc2cc(O[C@@H]3O[C@H](CO)[C@@H](O)[C@H](O)[C@H]3O)ccc12 [Daidzin]
IC50 [1]: > 400 µM
IC50 [2]: > 400 µM
